# Source: patent US9809623B2, “α4β7 peptide monomer and dimer antagonists” (Protagonist Therapeutics, Inc., priority 2014, dated 2017)
# Numbered stars: 1 amine (or outer) side, 2 acyl side, 3 side chain; on linkers, the order of the positions; unused ones are H or OH. Bridge positions count the residues as written; N and C are the ends. Square brackets hold non-standard residues; d marks the D form. Peptide text beside a SMILES is read from it. I, II: the chains in the order shown. ξ: configuration not given here. Phe(4-tBu) = CC(C)(C)c1ccc(C[C@H](N)C(=O)O)cc1; Diglycolyl = O=C(COCC(=O)[*:2])[*:1]; NMeR = CN[C@@H](CCCNC(=N)N)C(=O)O; β3hE = N[C@@H](CCC(=O)O)CC(=O)O; Thr(3ξ) = CC(O)[C@H](N)C(=O)O; Pen = CC(C)(S)[C@H](N)C(=O)O
# Legend:
# α4β7 integrin = α4β7 integrin (Homo sapiens, UniProt P13612+P26010); assay: Schild analysis, MAdCAM binding to immobilized α4β7 integrin by ELISA; conditions: global-fit Schild analysis
# Chain of α4β7 integrin (P13612 34-977 limits assumed): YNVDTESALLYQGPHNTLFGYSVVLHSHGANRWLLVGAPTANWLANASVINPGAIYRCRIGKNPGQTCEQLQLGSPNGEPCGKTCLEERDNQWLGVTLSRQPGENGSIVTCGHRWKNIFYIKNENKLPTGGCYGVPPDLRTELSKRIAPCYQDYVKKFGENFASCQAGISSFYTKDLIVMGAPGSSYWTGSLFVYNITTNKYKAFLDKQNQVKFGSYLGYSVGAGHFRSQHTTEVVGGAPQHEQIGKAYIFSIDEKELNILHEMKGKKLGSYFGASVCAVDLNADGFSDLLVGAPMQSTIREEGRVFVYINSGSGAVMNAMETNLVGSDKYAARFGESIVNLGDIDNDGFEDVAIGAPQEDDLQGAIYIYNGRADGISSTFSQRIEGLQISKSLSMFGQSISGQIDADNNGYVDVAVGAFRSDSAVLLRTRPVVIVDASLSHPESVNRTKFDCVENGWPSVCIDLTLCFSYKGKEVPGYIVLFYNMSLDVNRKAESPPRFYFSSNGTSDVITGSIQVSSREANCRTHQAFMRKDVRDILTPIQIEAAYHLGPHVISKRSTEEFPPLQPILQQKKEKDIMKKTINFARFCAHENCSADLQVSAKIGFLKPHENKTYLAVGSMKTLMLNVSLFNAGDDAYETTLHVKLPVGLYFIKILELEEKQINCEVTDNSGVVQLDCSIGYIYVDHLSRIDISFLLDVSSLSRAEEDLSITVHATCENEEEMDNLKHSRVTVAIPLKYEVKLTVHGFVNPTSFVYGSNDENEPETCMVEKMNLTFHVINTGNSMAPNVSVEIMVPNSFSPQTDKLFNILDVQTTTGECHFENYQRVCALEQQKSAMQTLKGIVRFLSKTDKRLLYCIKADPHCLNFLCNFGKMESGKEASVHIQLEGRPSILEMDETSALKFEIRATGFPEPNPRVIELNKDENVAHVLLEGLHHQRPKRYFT
# Chain of α4β7 integrin (P26010 20-723 limits assumed): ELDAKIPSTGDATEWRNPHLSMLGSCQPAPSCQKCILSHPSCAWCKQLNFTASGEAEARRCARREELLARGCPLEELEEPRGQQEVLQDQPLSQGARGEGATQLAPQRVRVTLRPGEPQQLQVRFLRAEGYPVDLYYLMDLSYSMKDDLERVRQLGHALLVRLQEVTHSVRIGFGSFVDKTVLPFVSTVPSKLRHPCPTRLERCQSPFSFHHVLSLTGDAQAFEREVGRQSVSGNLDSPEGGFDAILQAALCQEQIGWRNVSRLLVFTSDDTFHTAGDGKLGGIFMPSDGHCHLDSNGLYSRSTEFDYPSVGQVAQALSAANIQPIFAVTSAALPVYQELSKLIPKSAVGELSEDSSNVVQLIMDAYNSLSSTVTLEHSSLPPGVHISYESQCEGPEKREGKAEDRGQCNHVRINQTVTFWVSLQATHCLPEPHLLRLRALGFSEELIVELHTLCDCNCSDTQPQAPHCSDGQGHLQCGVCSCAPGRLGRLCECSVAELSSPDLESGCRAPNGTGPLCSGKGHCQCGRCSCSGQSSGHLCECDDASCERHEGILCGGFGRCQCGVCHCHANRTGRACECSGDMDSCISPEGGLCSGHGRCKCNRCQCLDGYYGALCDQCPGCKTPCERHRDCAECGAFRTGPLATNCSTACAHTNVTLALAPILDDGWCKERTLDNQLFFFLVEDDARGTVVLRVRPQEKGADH
# Description: Schild analysis was used to determine if Peptide X blocked MAdCAM binding to α4β7 integrin by a simple competitive mechanism. […] Based on the dose-response shifts, global-fit Schild analysis was used to determine the Schild slope and equilibrium dissociation constant (KB). The slope was ˜1, which indicated the inhibition is orthosteric antagonism with respect to MAdCAM, and not allosteric antagonism. […] The estimated KB value was 1 nM, which was similar to other Peptide X potency values in different assays.
# αEβ7 integrin = assay: FACS binding in cynomolgus monkey blood (α4β7 / αEβ7 expressing cells); format: cell-based; conditions: cynomolgus monkey blood
# Description: Blood from cynomolgus monkeys was also analyzed by FACS.
# Binding to αEβ7 integrin in cyno blood was also tested. Cyno blood was incubated with 1 nM Peptide X-Alexa 647, and cells expressing α4β7 or αEβ7 were analyzed by FACS. […] Binding to α4β7 was specific, because it could be blocked in the presence of a large excess (1 uM) of unlabeled Peptide X. Therefore under these conditions, it was concluded that Peptide X binds α4β7, not αEβ7.
# α4β7 receptor = assay: 7 day oral study, FACS receptor occupancy, α4β7 expression and circulating T cells; format: in vivo, cynomolgus monkey
# Description: In certain embodiments for FACS analysis, heparinized whole blood from animals *e.g., cyanos) is stained with each of two panels of antibodies to evaluate (1) the extent of α4β7 receptor occupancy in samples treated with a peptide dimer compound or peptide monomer compound described herein; and (2) the abundance of circulating α4β7+, αEβ7+, and α4β7+αEβ7+ lymphocyte subsets. Receptor occupancy and integrin expression are assessed within memory CD4 T cells, naïve CD4 T cells, and B cells. To evaluate receptor occupancy, whole blood samples are first treated with 1 mM MnCl2 to allow peptide binding, and then pre-incubated+/−1 uM unlabeled peptide to fully occupy (i.e., block) the α4β7 receptor. Blocked and unblocked samples were stained with 1 nM Alexa 647-labeled peptide, followed by staining with antibodies against α4β7, CD45, CD4, CD45RA, and CD19. Samples are processed to lyse erythrocytes and fix leukocytes, followed by staining with a second-step reagent (streptavidin-BV421) and wash steps. To assess integrin expression and cell subset abundance, whole blood samples are stained with antibodies against α4, β7, and αE, in addition to antibodies against CD45, CD4, CD45RA, and CD19. Samples are processed to lyse erythrocytes and fix leukocytes, followed by staining with a second-step reagent (streptavidin-BV421) and wash steps. The stained samples are analyzed by flow cytometry, collecting a constant sample volume to allow calculation of absolute cell counts.
# To further evaluate the in vivo properties of Peptide X in a higher species, cynomolgus monkeys were dosed with Peptide X for 7 days. Dosing was oral (nasogastric intubation) once daily. Whole blood (about 3.5 mL) was collected on Day 0 (prior to dosing) and Day 6 (1 hour post the last dose) for PK and PD analysis. On Day 6, blood was also collected from a non-dosed animal. For PD, FACS analysis was used to measure receptor occupancy, down-regulation of α4β7 expression and circulating levels of T cells expressing the integrin α4β7.
# For FACS analysis, heparinized whole blood from the cynos was stained with each of two panels of antibodies to evaluate (1) the extent of α4β7 receptor occupancy in Peptide X-treated samples and (2) the abundance of circulating α4β7+, αEβ7+, and α4β7+αEβ7+ lymphocyte subsets. Receptor occupancy and integrin expression were assessed within memory CD4 T cells, naïve CD4 T cells, and B cells. To evaluate receptor occupancy, whole blood samples were first treated with 1 mM MnCl2 to allow Peptide X binding, and then pre-incubated+/−1 uM unlabeled Peptide X to fully occupy (i.e., block) the α4β7 receptor. […] All stained samples were analyzed by flow cytometry, collecting a constant sample volume to allow calculation of absolute cell counts.
# [1] = PK studies in normal or DSS treated mice and rats, oral dosing; format: in vivo
# FIG. 5 = assay: FIG. 5
# Excerpt: Table printed on a drawing sheet, FIG. 5
# Footnotes: SIF- simulated intestinal fluid (porcine) / RIW- rat intestinal wash / HIF- human intestinal fluid / CW- colonic wash (rat) / IMH- intestinal mucosal homogenate (rat) / CMG- colonic mucosal homogenate (rat) / SGF- simulated gastric fluid (porcine) / Hu S9- human intestinal S9 fraction / RL S9- rat liver S9
# First reader's note: The first column is printed empty in all rows, so no substance name appears on the sheet; the column head reads CMH while the legend prints CMG.
# αLβ2 = αLβ2 (Homo sapiens, UniProt P05107+P20701); assay: PBMC memory T cell adhesion to ICAM-1; format: cell-based; set-up: endogenous in cells; conditions: memory T cells isolated from human PBMC donors; read-out: IC50 (nM), memory T cells, Ligand ICAM-1
# Chain of αLβ2 (P20701 26-1170): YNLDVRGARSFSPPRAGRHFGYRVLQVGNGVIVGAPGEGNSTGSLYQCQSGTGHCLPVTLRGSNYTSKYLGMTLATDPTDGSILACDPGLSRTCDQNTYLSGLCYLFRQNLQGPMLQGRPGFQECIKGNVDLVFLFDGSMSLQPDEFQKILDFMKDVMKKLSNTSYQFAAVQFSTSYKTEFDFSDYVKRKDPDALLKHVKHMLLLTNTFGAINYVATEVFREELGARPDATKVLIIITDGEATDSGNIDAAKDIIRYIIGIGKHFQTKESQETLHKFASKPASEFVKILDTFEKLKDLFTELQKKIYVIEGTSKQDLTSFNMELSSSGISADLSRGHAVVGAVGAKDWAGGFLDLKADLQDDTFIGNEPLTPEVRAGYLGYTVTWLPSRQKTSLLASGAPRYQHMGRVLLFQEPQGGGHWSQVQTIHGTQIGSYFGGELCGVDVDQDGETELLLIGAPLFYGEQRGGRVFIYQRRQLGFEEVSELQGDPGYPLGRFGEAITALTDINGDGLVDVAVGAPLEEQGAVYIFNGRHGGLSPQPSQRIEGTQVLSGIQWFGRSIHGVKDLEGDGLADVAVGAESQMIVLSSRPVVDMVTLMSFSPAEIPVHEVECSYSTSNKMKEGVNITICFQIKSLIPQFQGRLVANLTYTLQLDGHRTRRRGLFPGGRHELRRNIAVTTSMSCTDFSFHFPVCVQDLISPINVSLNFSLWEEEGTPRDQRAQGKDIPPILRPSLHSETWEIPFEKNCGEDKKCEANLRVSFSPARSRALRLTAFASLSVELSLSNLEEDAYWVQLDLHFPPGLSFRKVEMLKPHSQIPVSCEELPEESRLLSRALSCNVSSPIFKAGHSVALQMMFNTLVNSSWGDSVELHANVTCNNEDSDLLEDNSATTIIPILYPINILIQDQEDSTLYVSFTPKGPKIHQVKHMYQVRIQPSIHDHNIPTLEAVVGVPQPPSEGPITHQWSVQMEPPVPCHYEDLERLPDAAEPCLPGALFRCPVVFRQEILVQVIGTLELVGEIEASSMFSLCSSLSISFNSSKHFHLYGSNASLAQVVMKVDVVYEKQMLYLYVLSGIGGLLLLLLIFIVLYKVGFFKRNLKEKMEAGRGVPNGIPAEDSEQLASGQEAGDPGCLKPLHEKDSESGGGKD
# Chain of αLβ2 (P05107 23-769): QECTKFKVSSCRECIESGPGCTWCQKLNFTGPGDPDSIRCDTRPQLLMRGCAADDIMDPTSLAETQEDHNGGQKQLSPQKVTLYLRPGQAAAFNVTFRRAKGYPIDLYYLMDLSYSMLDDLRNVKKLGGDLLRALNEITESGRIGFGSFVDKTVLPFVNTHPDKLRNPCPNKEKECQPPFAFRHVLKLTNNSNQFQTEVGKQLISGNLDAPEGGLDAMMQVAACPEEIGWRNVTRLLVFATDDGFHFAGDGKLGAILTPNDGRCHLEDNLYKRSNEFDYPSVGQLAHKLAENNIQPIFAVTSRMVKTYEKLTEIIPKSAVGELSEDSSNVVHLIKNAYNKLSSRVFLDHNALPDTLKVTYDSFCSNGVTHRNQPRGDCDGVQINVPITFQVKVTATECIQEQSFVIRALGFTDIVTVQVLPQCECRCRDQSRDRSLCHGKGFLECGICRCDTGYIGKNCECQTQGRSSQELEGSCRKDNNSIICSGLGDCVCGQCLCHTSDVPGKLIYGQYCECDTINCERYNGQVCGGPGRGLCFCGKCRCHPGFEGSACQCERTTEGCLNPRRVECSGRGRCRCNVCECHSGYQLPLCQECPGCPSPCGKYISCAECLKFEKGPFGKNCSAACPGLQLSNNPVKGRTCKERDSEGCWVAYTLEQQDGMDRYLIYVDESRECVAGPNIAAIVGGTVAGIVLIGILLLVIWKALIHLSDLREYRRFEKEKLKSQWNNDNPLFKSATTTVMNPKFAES
smiles,measurement,setting,value
"CC(=O)N[C@@H]1C(=O)N(C)[C@@H](CCCNC(=N)N)C(=O)N[C@@H](CO)C(=O)N[C@@H](CC(=O)O)C(=O)N[C@@H](C(C)O)C(=O)N[C@@H](CC(C)C)C(=O)N[C@H](C(=O)N[C@@H](Cc2ccc(C(C)(C)C)cc2)C(=O)N[C@@H](CCC(=O)O)CC(=O)N[C@H](CCCCNC(=O)COCC(=O)NCCCC[C@@H](NC(=O)C[C@H](CCC(=O)O)NC(=O)[C@H](Cc2ccc(C(C)(C)C)cc2)NC(=O)[C@H]2NC(=O)[C@H](CC(C)C)NC(=O)[C@H](C(C)O)NC(=O)[C@H](CC(=O)O)NC(=O)[C@H](CO)NC(=O)[C@H](CCCNC(=N)N)N(C)C(=O)[C@@H](NC(C)=O)C(C)(C)SSC2(C)C)C(N)=O)C(N)=O)C(C)(C)SSC1(C)C (stereo partly drawn) [Peptide X, [Ac-Pen-(N-Me-Arg)-Ser-Asp-Thr-Leu-Pen-(Phe(4-tBu))-(β-homoGlu)-(D-Lys)]2-DIG] (I: Ac-[Pen][NMeR]SD[Thr(3ξ)]L[Pen][Phe(4-tBu)][β3hE][dK]-NH2 / II: Ac-[Pen][NMeR]SD[Thr(3ξ)]L[Pen][Phe(4-tBu)][β3hE][dK]-NH2; disulfide I:1-I:7, II:1-II:7; linker I:10-II:10 via Diglycolyl)",Schild slope,α4β7 integrin,~1
same,Kb,"α4β7 integrin; estimated, read-out: equilibrium dissociation constant (KB)",1 nM
same,binding site on α4β7 relative to vedolizumab,αEβ7 integrin,binds to a site on α4β7 that is distinct from the binding site for vedolizumab
same,α4β7 expression on CD4 memory T cells,"α4β7 receptor; all doses, Day 6 vs Day 0",decreased at all doses
same,EC50,"α4β7 receptor; by extrapolation, estimated, read-out: plasma concentration sufficient to occupy 50% of the α4β7 receptors in the blood",~0.35 nM
same,percentage of α4β7+ memory T cells normalized to total CD4 cells,α4β7 receptor; cyno blood,increase
same,percent receptor occupancy in blood,"α4β7 receptor; highest dose (75 mg/kg/day), oral once daily 7 days, CD4 memory α4β7+ T cells",exceeded 90%
same,levels in the blood and urine after oral dosing,[1],no significant measurable levels in the blood and urine
same,Intestinal half-life | CMH,FIG. 5,>6 h
same,Intestinal half-life | CW,FIG. 5,>6 h
same,Intestinal half-life | HIF,FIG. 5,>24 h
same,Intestinal half-life | IMH,FIG. 5,>6 h
same,Intestinal half-life | SIF,FIG. 5,11 h
same,Metabolism | Hu S9,FIG. 5,>6 h
same,Metabolism | RL S9,FIG. 5,>6 h
same,IC50,αLβ2,> 100000 nM
